Assay results reported in ChEMBL document CHEMBL1147091, “Prevalence of plasmid-mediated quinolone resistance determinants QnrA, QnrB, and QnrS among clinical isolates of Enterobacter cloacae in a Taiwanese hospital” (2007).
≈ marks a conversion by molar mass, not a printed value. Calls of active or inactive are those of the source. The rule behind the calls is not given here.

Assays:
Escherichia coli [1] = experiment: Decrease in susceptibility of qnrS-positive transconjugant streptomycin-resistant Escherichia coli C600; type: functional
Enterobacter cloacae [2] = experiment: Susceptibility of qnr positive Enterobacter cloacae assessed as percentage nonsusceptible isolates; type: functional
Enterobacter cloacae [3] = experiment: Susceptibility of metallo beta lactamase and extended spectrum beta lactamase deficient qnr positive Enterobacter cloacae assessed as percentage nonsusceptible isolates; type: functional
Enterobacter cloacae [4] = experiment: Susceptibility of qnr positive Enterobacter cloacae producing IMP8 and/or SHV12 assessed as percentage nonsusceptible isolates
Enterobacter cloacae [5] = experiment: Susceptibility of qnr positive Enterobacter cloacae; type: functional
Escherichia coli [6] = experiment: Decrease in susceptibility of qnrB-positive transconjugant streptomycin-resistant Escherichia coli C600; type: functional

SMILES | Activity (Escherichia coli [1]) | Activity (Enterobacter cloacae [2]) | also measured
O=C(O)c1cn(C2CC2)c2cc(N3CCNCC3)c(F)cc2c1=O [CIPROFLOXACIN] | 0.25 µg/mL | – | –
NCC[C@H](O)C(=O)N[C@@H]1C[C@H](N)[C@@H](O[C@H]2O[C@H](CN)[C@@H](O)[C@H](O)[C@H]2O)[C@H](O)[C@H]1O[C@H]1O[C@H](CO)[C@@H](O)[C@H](N)[C@H]1O [AMIKACIN] | – | 3.5% | –
C[C@@H](O)[C@H]1C(=O)N2C(C(=O)O)=C(SCCNC=N)C[C@H]12 [IMIPENEM ANHYDROUS] | – | 9.3% | –
CO/N=C(\C(=O)N[C@@H]1C(=O)N2C(C(=O)O)=C(COC(C)=O)CS[C@H]12)c1csc(N)n1 [CEFOTAXIME] | – | 97.8% | –
CC(C)(O/N=C(\C(=O)N[C@@H]1C(=O)N2C(C(=O)[O-])=C(C[n+]3ccccc3)CS[C@H]12)c1csc(N)n1)C(=O)O [CEFTAZIDIME] | – | 86% | Activity (Enterobacter cloacae [3]): 29.4%; Activity (Enterobacter cloacae [4]): 100%
CC1(C)S[C@@H]2[C@H](NC(=O)[C@H](N)c3ccccc3)C(=O)N2[C@H]1C(=O)O | inactive | – | –
CC(=O)OCC1=C(C(=O)O)N2C(=O)[C@@H](NC(=O)Cc3cccs3)[C@H]2SC1 | inactive | – | –
CCn1cc(C(=O)O)c(=O)c2ccc(C)nc21 [NALIDIXIC ACID] | – | 100% | MIC90 (Enterobacter cloacae [5]): > 256 µg/mL; MIC (Escherichia coli [1]; Escherichia coli, C600): 16 µg/mL (≈ 68.9 µM); MIC (Escherichia coli [6]): 16 µg/mL (≈ 68.9 µM)
